Experimental data taken from patent publication US8143259B2, “Cold menthol receptor antagonists” (Janssen Pharmaceutica, NV, priority 2008, dated 2012).
Values joined by “and” are separate entries in the source; they are usually repeats but may differ in a detail not shown here. Equal entries are not always repeated.

Biological target: T1, canine TRPM8 (Canis lupus familiaris, UniProt Q1A7N1)
T1 construct: expressed in transfected cells
Assay: In Vitro Canine TRPM8 Functional Assay (Ca2+ fluorescence, icilin activation)
Format: cell-based
Settings: for % Inh @ 0.5 μM: 0.5 μM compound; for IC50: HEK293 cells stably expressing canine TRPM8, icilin activation, Ca2+ fluorescence; for inhibition at 0.5 µM: HEK293, 0.5 μM compound; for % Inh @ 0.2 μM: 0.2 μM compound; for inhibition at 0.2 µM: HEK293, 0.2 μM compound
Method: The functional activity of compounds of the formula (I) was determined by measuring changes in intracellular calcium concentration using a Ca^2+-sensitive fluorescent dye. The changes in fluorescent signal were monitored by a fluorescence plate reader, either a FLIPR™ (Molecular Devices) or FDSS (Hamamatsu). Increases in intracellular Ca^2+ concentration were readily detected upon activation with icilin.
HEK293 cells stably expressing canine TRPM8 were routinely grown as monolayers in Dulbecco's minimum essential medium supplemented with 10% FBS, 2 mM L-glutamine, 100 units/mL penicillin, 100 ug/mL streptomycin and 400 μg/mL G418. Cells were maintained in 5% CO2 at 37° C. At 24 hrs prior to assay, cells were seeded in black wall, clear-base poly-D-lysine coated 384-well plates (BD Biosciences, NJ, USA) at a density of 5,000 cells per well in culture medium and grown overnight in 5% CO2 at 37° C. On assay day, growth media was removed and cells were loaded with Calcium 3 Dye (Molecular Devices) for 35 min at 37° C., under 5% CO2 and then for 25 min at room temperature and atmosphere. Subsequently, cells were tested for agonist-induced increases in intracellular Ca^2+ levels using FLIPR™ or FDSS. Cells were challenged with compounds of the formula (I) (at varying concentrations) and intracellular Ca^2+ was measured for 5 min prior to the addition of icilin to all wells to achieve a final concentration that produces approximately an 80% maximal response.
Maximal fluorescence intensity (FI) achieved upon addition of icilin was exported from the FLIPR or FDSS software and further analyzed using GraphPad Prism 3.02 (Graph Pad Software Inc., CA, U.S.A.). Basal FI was subtracted prior to normalizing data to percent of maximal response. Curves were generated using the average of quadruplicate wells for each data point, were analyzed using nonlinear regression of either sigmoidal dose response or sigmoidal dose response (variable slope).

[1] = canine TRPM8 HEK293, icilin, 0.5 µM
[2] = canine TRPM8 HEK293, icilin, 0.2 µM

T1 sequence (Q1A7N1 1-1104): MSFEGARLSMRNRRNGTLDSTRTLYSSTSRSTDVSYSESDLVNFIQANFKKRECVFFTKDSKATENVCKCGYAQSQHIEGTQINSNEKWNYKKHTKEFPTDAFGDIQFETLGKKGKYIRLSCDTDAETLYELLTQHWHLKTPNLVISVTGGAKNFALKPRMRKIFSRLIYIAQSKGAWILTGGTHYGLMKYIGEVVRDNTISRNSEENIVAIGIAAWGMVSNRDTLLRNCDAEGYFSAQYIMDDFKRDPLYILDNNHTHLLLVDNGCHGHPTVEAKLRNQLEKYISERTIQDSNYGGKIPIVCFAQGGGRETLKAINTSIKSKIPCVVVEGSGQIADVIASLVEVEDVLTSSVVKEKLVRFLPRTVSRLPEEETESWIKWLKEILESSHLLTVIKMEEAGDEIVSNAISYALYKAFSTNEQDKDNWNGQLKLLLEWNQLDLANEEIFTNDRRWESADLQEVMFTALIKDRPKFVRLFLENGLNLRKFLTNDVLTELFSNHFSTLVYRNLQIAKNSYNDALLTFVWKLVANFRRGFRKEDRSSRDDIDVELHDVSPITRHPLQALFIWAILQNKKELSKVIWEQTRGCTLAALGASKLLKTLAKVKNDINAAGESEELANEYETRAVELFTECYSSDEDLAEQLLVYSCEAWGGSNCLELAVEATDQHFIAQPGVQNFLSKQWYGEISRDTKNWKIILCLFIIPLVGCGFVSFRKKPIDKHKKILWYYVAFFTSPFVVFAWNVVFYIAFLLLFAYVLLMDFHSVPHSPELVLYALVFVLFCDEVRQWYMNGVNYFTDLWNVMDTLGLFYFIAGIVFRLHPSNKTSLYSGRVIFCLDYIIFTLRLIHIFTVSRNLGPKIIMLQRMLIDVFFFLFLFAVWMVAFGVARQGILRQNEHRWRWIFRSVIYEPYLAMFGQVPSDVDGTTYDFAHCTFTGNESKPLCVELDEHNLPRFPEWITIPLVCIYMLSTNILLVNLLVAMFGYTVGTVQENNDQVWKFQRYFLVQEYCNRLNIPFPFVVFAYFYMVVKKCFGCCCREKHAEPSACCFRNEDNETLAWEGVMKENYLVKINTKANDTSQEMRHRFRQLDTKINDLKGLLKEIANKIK

1-[2-(2-Chloro-phenyl)-pyrrolidin-1-yl]-3-phenylamino-2-(4-trifluoromethyl-phenyl)-propan-1-one [Cpd 83]
% Inh @ 0.5 μM (canine TRPM8 HEK293, icilin): 96% | IC50: 248 nM

CC(C)(C)c1ccc(C(Nc2ccccc2)C(=O)N2CCCC2Cc2ccccc2Cl)cc1 (mixture of isomers) [Cpd 6]
% Inh @ 1 μM (1 μM compound, canine TRPM8 HEK293, icilin): 45.171%

O=C(C(CNc1ccccc1)c1ccc(C(F)(F)F)cc1)N1CCCC1c1ccccc1 (mixture of isomers) [Cpd 94]
% Inh @ 0.5 μM [1]: 98% | IC50: 162 nM

O=C(C(CNc1ccccc1)c1ccc(C(F)(F)F)cc1)N1CCCC1c1ccccc1 (mixture of isomers) [Cpd 95]
% Inh @ 0.5 μM [1]: 67%

O=C(C(Nc1ccccc1F)c1ccc(C(F)(F)F)cc1)N1CCCC1c1ccccc1F (mixture of isomers) [Cpd 131]
% Inh @ 0.5 μM [1]: 103% | IC50: 6.9 nM

O=C(C(Nc1ccccc1F)c1ccc(C(F)(F)F)cc1)N1CCCC1c1ccccc1F (mixture of isomers) [Cpd 153]
% Inh @ 0.5 μM [1]: 99.694% | IC50: 44 nM

O=C(C(Nc1ccccc1F)c1ccc(Cl)cc1)N1CCC[C@H]1c1ccccc1F (mixture of isomers) [Cpd 156]
inhibition at 0.5 µM (canine TRPM8 HEK293, icilin): 92% | IC50: 9 nM

Cc1c(C(Cc2ccccc2F)C(=O)N2CCCC2c2ccccc2F)sc2ccccc12 (mixture of isomers) [Cpd 177]
% Inh @ 0.2 μM (canine TRPM8 HEK293, icilin): 63%

O=C(C(Nc1ccccc1F)c1ccc(Br)cc1)N1CCCC1c1ccccc1F (mixture of isomers) [Cpd 180]
% Inh @ 0.2 μM (canine TRPM8 HEK293, icilin): 97% | IC50: 9 nM

CCOC(=O)c1ccc(C(Nc2ccccc2F)C(=O)N2CCC[C@H]2c2ccccc2F)cc1 (mixture of isomers) [Cpd 182]
inhibition at 0.2 µM (canine TRPM8 HEK293, icilin): 102% | IC50: 13 nM

O=C(C(Nc1ccccc1F)c1ccc(C(F)(F)F)cc1)N1CCC[C@H]1c1cccc(F)c1 (mixture of isomers) [Cpd 186]
inhibition at 0.2 µM (canine TRPM8 HEK293, icilin): 98% | IC50: 18 nM

COC(=O)c1cccc(C2CCCN2C(=O)C(Nc2ccccc2F)c2ccc(C(F)(F)F)cc2)c1 (mixture of isomers) [Cpd 221]
% Inh @ 0.2 μM (canine TRPM8 HEK293, icilin): 102% | IC50: 22 nM

O=C(O)c1cccc(C2CCCN2C(=O)C(Nc2ccccc2F)c2ccc(C(F)(F)F)cc2)c1 (mixture of isomers) [Cpd 223]
% Inh @ 0.2 μM (canine TRPM8 HEK293, icilin): 97% | IC50: 40 nM

CS(=O)(=O)c1ccc(C(Nc2ccccc2F)C(=O)N2CCCC2c2ccccc2F)cc1 (mixture of isomers) [Cpd 224]
% Inh @ 0.2 μM (canine TRPM8 HEK293, icilin): 55%

O=C(C(Nc1ccccc1F)c1ccc(Br)cc1)N1[C@H](CO)CC[C@@H]1c1ccccc1 (mixture of isomers) [Cpd 238]
IC50: 112 nM

O=C(C(Nc1ccccc1F)c1cc2ccccc2s1)N1CCCC1c1ccccc1F (mixture of isomers) [Cpd 245]
% Inh @ 0.2 μM (canine TRPM8 HEK293, icilin): 98% | IC50: 2.6 nM

CNC(=O)c1ccc(C(Nc2c(F)cccc2F)C(=O)N2CCCC2c2ccccc2F)cc1 (mixture of isomers) [Cpd 265]
% Inh @ 0.2 μM (canine TRPM8 HEK293, icilin): 15%

O=C(C(Cc1c(F)cccc1F)c1ccc(C(F)(F)F)cc1)N1CCCC1c1cccnc1 (mixture of isomers) [Cpd 268]
% Inh @ 0.2 μM [2]: 13% and 15%

O=C(C(Nc1c(F)cccc1F)c1ccc(Cl)cc1)N1CCCC1c1cccnc1 (mixture of isomers) [Cpd 270]
% Inh @ 0.2 μM (canine TRPM8 HEK293, icilin): 58%

O=C(C(c1ccc(C(F)(F)F)cc1)N1CCc2ccccc21)N1CCC[C@H]1c1cccnc1 (mixture of isomers) [Cpd 275]
inhibition at 0.2 µM (canine TRPM8 HEK293, icilin): 94% | IC50: 21 nM

O=C(C(Nc1ccccc1F)c1ccc2c(c1)CCO2)N1CCC[C@H]1c1ccccc1F (mixture of isomers) [Cpd 286]
inhibition at 0.2 µM (canine TRPM8 HEK293, icilin): 96% | IC50: 14 nM

O=C(C(Nc1ccccc1F)c1ccc(-c2ccccn2)cc1)N1CCC[C@H]1c1ccccc1F (mixture of isomers) [Cpd 289]
inhibition at 0.2 µM (canine TRPM8 HEK293, icilin): 84% | IC50: 12 nM

O=C(C(c1ccc(C(F)(F)F)cc1)N1CCCc2ccccc21)N1CCCC1c1ccccc1F (mixture of isomers) [Cpd 292]
% Inh @ 0.2 μM (canine TRPM8 HEK293, icilin): 45%

O=C(C(Nc1ccccc1F)c1ccc(-c2cccnc2)cc1)N1CCCC1c1ccccc1F (mixture of isomers) [Cpd 300]
% Inh @ 0.2 μM [2]: 101% and 102% | IC50: 6 nM and 8 nM

O=C(C(Nc1ccccc1F)c1ccc(-c2ccccc2)nc1)N1CCC[C@H]1c1ccccc1F (mixture of isomers) [Cpd 306]
% Inh @ 0.2 μM [2]: 102% | inhibition at 0.2 µM (canine TRPM8 HEK293, icilin): 101% | IC50: 7 nM

COC(=O)c1cc(C(Nc2ccccc2F)C(=O)N2CCCC2c2ccccc2F)ccc1Cl (mixture of isomers) [Cpd 309]
% Inh @ 0.2 μM (canine TRPM8 HEK293, icilin): 102% | IC50: 13 nM

O=C(O)c1cccc(-c2ccc(C(Nc3ccccc3F)C(=O)N3CCCC3c3ccccc3F)cc2)c1 (mixture of isomers) [Cpd 310]
% Inh @ 0.2 μM (canine TRPM8 HEK293, icilin): 41%

O=C(C(Nc1ccccc1F)c1ccc(N2CCCCC2)nc1)N1CCC[C@H]1c1ccccc1F (mixture of isomers) [Cpd 334, 2-(2-Fluoro-phenylamino)-1-[(2S)-2-(2-fluoro-phenyl)-pyrrolidin-1-yl]-2-(3,4,5,6-tetrahydro-2H-[1,2′]bipyridinyl-5′-yl)-ethanone]
inhibition at 0.2 µM (canine TRPM8 HEK293, icilin): 101% | IC50: 5 nM

COc1ccccc1[C@@H]1CCCN1C(=O)C(Nc1ccccc1F)c1ccc(N2CCCCC2)nc1 (mixture of isomers) [Cpd 335]
inhibition at 0.2 µM (canine TRPM8 HEK293, icilin): 101% | IC50: 26 nM

O=C(C(c1ccc(C(F)(F)F)cc1)N1CCCc2ccccc21)N1CCCC1c1cccnc1 (mixture of isomers) [Cpd 336]
% Inh @ 0.2 μM (canine TRPM8 HEK293, icilin): 43%

O=C(O)c1ccc(-c2ccc(C(Nc3ccccc3F)C(=O)N3CCCC3c3ccccc3F)cc2)cc1 (mixture of isomers) [Cpd 337]
% Inh @ 0.2 μM [2]: 91% | IC50: 56 nM

COC(=O)c1cccc([C@@H]2CCCN2C(=O)C(Nc2ccccc2F)c2ccc(C(F)(F)F)cc2)c1 (mixture of isomers) [Cpd 347]
inhibition at 0.2 µM (canine TRPM8 HEK293, icilin): 99% | IC50: 40 nM

CN(C)c1cccc([C@H]2CCCN2C(=O)C(Nc2ccccc2F)c2ccc(C(F)(F)F)cc2)c1 (mixture of isomers) [Cpd 348]
inhibition at 0.2 µM (canine TRPM8 HEK293, icilin): 100% | IC50: 22 nM

O=C(O)c1cccc([C@@H]2CCCN2C(=O)C(Nc2ccccc2F)c2ccc(C(F)(F)F)cc2)c1 (mixture of isomers) [Cpd 349, 3-{(1S)-1-[2-(2-Fluoro-phenylamino)-2-(4-trifluoromethyl-phenyl)-acetyl]-pyrrolidin-2-yl}-benzoic acid]
inhibition at 0.2 µM (canine TRPM8 HEK293, icilin): 100% | IC50: 33 nM

CC(C)(C)c1ccc(C(Nc2ccccc2F)C(=O)N2CCC[C@H]2c2ccccc2F)cn1 (mixture of isomers) [Cpd 355]
inhibition at 0.2 µM (canine TRPM8 HEK293, icilin): 100% | IC50: 5 nM

O=C(C(Nc1ccccc1F)c1ccc(N2CCOCC2)nc1)N1CCC[C@H]1c1ccccc1F (mixture of isomers) [Cpd 358]
inhibition at 0.2 µM (canine TRPM8 HEK293, icilin): 100% | IC50: 8 nM

O=C(C(Nc1ccccc1)c1ccccc1Cl)N1CCCC1c1ccccc1Cl (mixture of isomers) [Cpd 362]
% Inh @ 0.5 μM (canine TRPM8 HEK293, icilin): 21.91%

O=C(C(Nc1ccccc1)c1ccc(C(F)(F)F)cc1)N1CCCC1c1ccccc1Cl (racemic) [Cpd 16]
inhibition at 1 µM (HEK293, 1 μM compound, canine TRPM8 HEK293, icilin): 103% | IC50: 21.6 nM

Cc1cccc(C)c1NC(C(=O)N1CCc2ccccc21)c1ccc(C(F)(F)F)cc1 (racemic) [Cpd 35]
% Inh @ 0.5 μM (canine TRPM8 HEK293, icilin): 72.417%

O=C(C(Nc1ccccc1Cl)c1ccc(C(F)(F)F)cc1)N1CCc2ccccc21 (racemic) [Cpd 37]
% Inh @ 0.5 μM (canine TRPM8 HEK293, icilin): 49.878%

O=C(C(Nc1cccc(Cl)c1)c1ccc(C(F)(F)F)cc1)N1CCc2ccccc21 (racemic) [Cpd 38]
% Inh @ 0.5 μM (canine TRPM8 HEK293, icilin): 63.009%

O=C(C(Nc1ccc(Cl)cc1)c1ccc(C(F)(F)F)cc1)N1CCc2ccccc21 (racemic) [Cpd 39]
% Inh @ 0.5 μM (canine TRPM8 HEK293, icilin): 73.007%

O=C(C(CNc1ccccc1)c1ccc(C(F)(F)F)cc1)N1CCc2ccccc21 (racemic) [Cpd 40]
% Inh @ 0.5 μM (canine TRPM8 HEK293, icilin): 90.495% | IC50: 233 nM

O=C(C(NC1CCCCC1)c1ccc(C(F)(F)F)cc1)N1CCc2ccccc21 (racemic) [Cpd 41]
% Inh @ 0.5 μM (canine TRPM8 HEK293, icilin): 70.995%

O=C(C(Nc1ccccc1F)c1ccc(C(F)(F)F)cc1)N1CCCC1c1ccccc1Cl (racemic) [Cpd 68]
inhibition at 0.2 µM (canine TRPM8 HEK293, icilin): 89% | inhibition at 0.5 µM (canine TRPM8 HEK293, icilin): 103% | IC50: 7 nM and 12 nM and 13 nM

O=C(C(Nc1ccccc1F)c1ccc(C(F)(F)F)cc1)N1CCCC1c1ccccc1 (racemic) [Cpd 69]
inhibition at 0.5 µM (canine TRPM8 HEK293, icilin): 102% | IC50: 5 nM

COc1ccc(C(Nc2ccccc2)C(=O)N2Cc3ccccc3C2)cc1 (racemic) [Cpd 73]
% Inh @ 0.5 μM (canine TRPM8 HEK293, icilin): 33%
